Measurements published in US20260000600A1, “PHARMACEUTICAL COMPOSITION FOR PREVENTING OR TREATING INFLAMMATORY DISEASES COMPRISING PEGYLATED BILIRUBIN” (BILIX CO., LTD., priority 2022, published 2026).

How the values were obtained:
[1] = system: IMQ-induced psoriasis mouse model; test: IMQ-induced psoriasis mouse model; type: in vivo, C57BL/6 male mouse; conditions: 0.05% Clobetasol propionate, 62.5 mg/animal, topical daily; Vehicle 10.50±0.47
Description: An IMQ-induced psoriasis mouse model was created by applying Aldara™ (imiquimod, IMQ) cream to the back skin of an 8-week-old C57BL/6 male mouse a total of 7 times from Day 0 to Day 6. With respect to a normal group in which IMQ cream was not applied (Normal group), as negative control groups, a group in which no additional substances were applied in the process of inducing psoriasis (No Treatment group) and a group in which excipients were applied to the skin (Vehicle group), and as a positive control group, a group in which the previously-approved drug Betabate was applied (Clobetasol propionate group, 0.05% Clobetasol propionate, 62.5 mg/animal), the test substance Brixelle (30 mg/kg) was applied to the skin every day from Day 0, thus to evaluate its effectiveness. Clinical symptoms were evaluated during the process of inducing psoriasis, and skin tissues were secured after the survival test was completed for further analysis.
To quantify the clinical symptoms of psoriasis, for three (3) clinical index items including 1) erythema (redness), 2) scaling and 3) skin thickness, a clinical score was measured on a scale out of 4 (modified psoriasis area and severity index, PASI). […] The results of the graph were expressed as mean±SEM. […]

[2] = system: DNFB-induced contact dermatitis mouse model; test: DNFB-induced contact dermatitis mouse model; type: in vivo, C57BL/6 NC/Nga male mice; conditions: 0.1% Dexamethasone, 62.5 mg/animal, topical daily; Vehicle 0.94±0.01
Description: A DNFB-induced contact dermatitis mouse model was created using 6 to 10-week-old C57BL/6 NC/Nga male mice and Mouse 2, 4 Dinitrofluorobenzene (DNFB). On Days 0 and 1, 0.5% DNFB solution (acetone:olive oil=4:1) was applied to the back skin to sensitize them, and then on Day 7, 0.3% DNFB solution was applied to the ear skin to induce contact dermatitis. With respect to a normal group in which the DNFB solution was not applied (Normal group), as negative control groups, a group in which no additional substances were applied in the process of inducing contact dermatitis (No Treatment group) and a group in which excipients were applied to the skin (Vehicle group), and as a positive control group, a group in which the previously-approved drug Maxidex was applied (Dexamethasone group, 0.1% Dexamethasone, 62.5 mg/animal), the test substance Brixelle (30 mg/kg) was applied to the skin every day from Day 0, thus to evaluate its effectiveness. Clinical symptoms were evaluated during the process of inducing contact dermatitis, and skin tissues were secured after the survival test was completed for further analysis.
Ear thickness was measured to evaluate edema, a clinical symptom of contact dermatitis. […] The results of the graph were expressed as mean±SEM. […]

[3] = system: HDM-induced atopic dermatitis mouse model; test: HDM-induced atopic dermatitis mouse model (2), comparison with approved drugs; type: in vivo, NC/Nga female mice; conditions: 0.1% Dexamethasone, 62.5 mg/animal
Procedure: (§1) An HDM-induced atopic dermatitis mouse model was created by applying HDM antigen ointment to the back and ear skin of 6 to 10-week-old NC/Nga female mice a total of 7 times on Days 0, 7, 10, 14, 17, 21 and 24. […] Clinical symptoms were evaluated during the process of inducing atopic dermatitis, and skin tissues were secured after the survival test was completed for further analysis.
(§2) To quantify the clinical symptoms of atopic dermatitis, for four (4) clinical index items including 1) erythema/hemorrhage, 2) scarring/dryness, 3) edema and 4) excoriation/maceration (erosion), a clinical score was measured on a Likert scale out of 3. H&E staining was performed to observe histological changes in the skin for atopic dermatitis, while dihydroethidium (DHE) staining was performed to measure ROS in skin tissues. Further, in order to identify the mast cells and eosinophils infiltrated in the skin tissues, Toluidine blue staining and Congo red staining were performed, respectively. To measure IL-4 and IL-13, which are inflammatory mediators known to be highly related to atopic dermatitis, ELISA was performed on the skin tissues. The results of the graph were expressed as mean±SEM. The statistical analysis was performed using the GraphPad program to confirm statistical significance with the Vehicle group through one-way ANOVA, followed by Dunnett's multiple comparison method (*p<0.05, **p<0.01, ***p<0.001, ****p<0.0001).

[4] = system: HDM-induced atopic dermatitis mouse model; test: HDM-induced atopic dermatitis mouse model (1), dose dependence; type: in vivo, NC/Nga female mice; conditions: 0.1% Dexamethasone, 62.5 mg/animal
Procedure: as §1
as §2, with “respectively.” for “respectively. To measure IL-4 and IL-13, which are inflammatory mediators known to be highly related to atopic dermatitis, ELISA was performed on the skin tissues.”

Q: How did the “clinical score (modified PASI)” value [1] turn out when `CCC(=O)O[C@]1(C(=O)CCl)[C@@H](C)C[C@H]2[C@@H]3CCC4=CC(=O)C=C[C@]4(C)[C@@]3(F)[C@@H](O)C[C@@]21C` [Clobetasol propionate] was run?
A: The value was 7.25±0.21.

Q: What does the source list for `C[C@@H]1C[C@H]2[C@@H]3CCC4=CC(=O)C=C[C@]4(C)[C@@]3(F)[C@@H](O)C[C@]2(C)[C@@]1(O)C(=O)CO` [Dexamethasone]?
A: thickness of the ear skin [2]: 0.67±0.02; clinical score (atopic dermatitis) ([3]; topical daily from Day 7, Vehicle 9.58±0.64): 3.75±0.99; eosinophil infiltration (Congo red staining) ([3]; Vehicle 40.06±5.95): 10.25±2.56; mast cell infiltration (Toluidine blue staining) ([3]; Vehicle 56.81±1.99): 20.69±5.25; clinical score (atopic dermatitis) ([4]; topical daily from Day 7, Vehicle 9.44±0.77, mean±SEM): 4.90±0.76; eosinophil infiltration (Congo red staining) ([4]; Vehicle 35.50±1.37): 18.88±1.64; mast cell infiltration (Toluidine blue staining) ([4]; Vehicle 52.69±2.19): 27.38±3.19
